{"source": "patent US6392068B1", "about": "“Carborane containing cholesterol, a new type of molecule for targeted boron drug delivery” (The University of Georgia Research Foundation, Inc., priority 1999, dated 2002)", "origin": "cited, not measured here", "system": "tumor cell", "conditions": "in-vitro; background statement", "data": [{"substance": "Na2B12H11 SH [BSH]", "values": [{"measurement": "retention in the tumor cell", "value": "does not stay in the tumor cell but is easily washed out"}]}]}
